Data reported in article PMC3266270, “Biochemical Discrimination between Selenium and Sulfur 1: A Single Residue Provides Selenium Specificity to Human Selenocysteine Lyase” (PLoS ONE, 2012).

How the values were obtained:
[1] = target: T1, hSCL (human selenocysteine lyase) (Homo sapiens, UniProt Q96I15); experiment: X-ray crystal structure; format: binding; conditions: P2_12_12_1 crystal, 2.1 Å; pH 6.7; copurified cofactor; active site at homodimer interface
T1 construct: gene SCLY; residues 8-445, N-terminal His6-TEV tag cleaved before assay and crystallization; E. coli BL21(DE3); homodimer
T1 sequence (Q96I15 8-445): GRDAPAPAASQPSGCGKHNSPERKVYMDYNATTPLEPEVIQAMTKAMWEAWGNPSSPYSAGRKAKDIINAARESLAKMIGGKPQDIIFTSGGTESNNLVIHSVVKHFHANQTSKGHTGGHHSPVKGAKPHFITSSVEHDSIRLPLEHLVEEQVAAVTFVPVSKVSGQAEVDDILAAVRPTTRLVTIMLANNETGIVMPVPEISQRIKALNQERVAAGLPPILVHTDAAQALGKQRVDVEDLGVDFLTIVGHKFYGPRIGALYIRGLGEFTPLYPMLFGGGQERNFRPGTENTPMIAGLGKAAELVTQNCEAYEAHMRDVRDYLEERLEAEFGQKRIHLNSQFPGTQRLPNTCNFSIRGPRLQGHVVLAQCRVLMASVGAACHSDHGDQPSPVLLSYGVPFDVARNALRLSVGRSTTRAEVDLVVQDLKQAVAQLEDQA

[2] = target: T1, hSCL (human selenocysteine lyase); experiment: alanine dehydrogenase-coupled detection of product alanine; format: biochemical; conditions: 5 mM seleno-L-cystine reduced in situ by 50 mM DTT (10 mM Sec equivalent), 0.2 mM PLP, pH 8.5, 37 °C, under nitrogen; time course only
[3] = target: the molecule itself; experiment: crystal structure; hSCL with PLP, His-tag cleaved; two crystal forms: P2(1)2(1)2(1), 2.1 A, 100 mM HEPES pH 6.7, 10% PEG6000, one dimer per asymmetric unit; P1, 1.8 A, 50 mM HEPES pH 8.1, 200 mM ammonium nitrate, 25% PEG3350, soaked with 10 mM L-cysteine for 2 h, two dimers per asymmetric unit; crystals grown at 20 C

## Cc1ncc(COP(=O)(O)O)c(C=O)c1O [PLP]
[1]
  X-ray crystal structure: Human SCL homodimer in complex with the co-factor PLP.

## N[C@@H](C[SeH])C(=O)O [Sec]
[2]
  alanine dehydrogenase-coupled detection of product alanine: The activity with Sec observed in the wild-type enzyme was not altered

B1: human selenocysteine lyase (hSCL), residues 8-445 (enzyme, UniProt Q96I15 8-445, looked up)
chain: T1 sequence (Q96I15 8-445)
notes: human selenocysteine lyase (hSCL), residues 8-445, cDNA clone from the Mammalian Gene Collection (GenBank BC007891.2), cloned in pNIC-Bsa4; residues 120-132 are disordered; A few vector residues probably remain at the N-terminus after TEV cleavage (surmised; also called human SCL; Sec lyase; source: His-tag removed with TEV protease); not shown: His6, N-terminal, cleaved
[3]
  stoichiometry N: 2
